This test relates to glucose plasma levels. Nature of the test: Hypoglycemizing activity in rats after oral glucose administration (2 g/kg). The test is classed as in vivo, rat. To be noted: 50 mg/kg os, 30 min before glucose 2 g/kg os; male CD rats; AUC 0 to 90 min; mean±M.S.E. Here is the method:
Male CD strain rats, of the starting weight 275-300 g, were used. The animals were housed in makrolon cages in environment with automatic control of light (12 hour light/12 hour darkness cycles), temperature (21±1° C.) and humidity (60±5%).
Lupin conglutin gamma prepared as reported in Example 2 was used. 100 rats (divided into in 5 groups of […] animals each) were pre-treated (time−30 min) with: • Group 1: carrier (1% carboxymethylcellulose [CMC]; 2 ml/kg os) • Group 2: lupin conglutin gamma (50 mg/kg os in 1% CMC) • Group 3: lupin conglutin gamma (100 mg/kg os in 1% CMC) • Group 4: lupin conglutin gamma (200 mg/kg os in 1% CMC) • Group 5: metformin (50 mg/kg os in 1% CMC) […]
Immediately before the glucose administration (time 0 min) and 30, 60 and 90 min after the glucose administration, all the animals (n=5 rats for each time) were anaesthetized with sodium thiopental (50 mg/kg i.p.) and 5 ml of blood was drawn from the vena cava. Blood samples were collected in syringes containing EDTA (7.5 mM) as anticoagulant, and immediately subjected to centrifugation (2000 g×10 min at 4° C.) to obtain the plasma necessary for the enzymatic quantitation of glucose.
The quantitation of the glucose in rat plasma was carried out in triplicate by enzymatic assay (absorbance at 505 nm) and the glucose concentration was expressed in mg/dl. […]

On to `CN(C)C(=N)N=C(N)N` [metformin], for which the “area under the curve (AUC) of glucose plasma levels” value is recorded as 1565±201.

The record behind these values is patent US7323441B2, “Use of lupin conglutin for the treatment of type II diabetes” (Indena S.p.A., priority 2003, dated 2008).
